Results as given in patent US11000708B2 (priority 2015, dated 2021).
Several values for one entry are separate records, joined by “and”; a condition that tells them apart may be missing. Equal values may be shown once. Read-outs that look alike come from different tables or passages of the source.

Experiments:
[1] = tested on: 518 clinically-separated Mycobacterium tuberculosis strains; conditions: cited from earlier work
[2] = tested on: clinically-separated Mycobacterium tuberculosis strains; type: cell-based
[3] = 518 clinically-separated strains
[4] = among 321 strains resistant to one or more first-line drugs

capreomycin
resistance rate of Mycobacterium tuberculosis [1, 3]: 21.81% | resistance rate of Mycobacterium tuberculosis [1, 4]: 33.02%

NCC[C@H](O)C(=O)N[C@@H]1C[C@H](N)[C@@H](O[C@H]2O[C@H](CN)[C@@H](O)[C@H](O)[C@H]2O)[C@H](O)[C@H]1O[C@H]1O[C@H](CO)[C@@H](O)[C@H](N)[C@H]1O [amikacin]
resistance rate of Mycobacterium tuberculosis [1, 3]: 15.83% | resistance rate of Mycobacterium tuberculosis [1, 4]: 25.55%

CO[C@H]1/C=C/O[C@@]2(C)Oc3c(C)c(O)c4c(O)c(c(/C=N/N5CCN(C)CC5)c(O)c4c3C2=O)NC(=O)/C(C)=C\C=C\[C@H](C)[C@H](O)[C@@H](C)[C@@H](O)[C@@H](C)[C@H](OC(C)=O)[C@@H]1C [Rifampicin, rifampicin]
growth of bacterial colonies on drug-containing culture medium ([2]; rifampicin 50 μg/ml, Table 5, per clinical strain): 4+ (positive (4+) if the bacterial colonies closely grow on the slant face of the culture medium and account for ¾ or more of the area of the slant face) and 3+ (positive (3+) if the bacterial colonies closely grow on the slant face of the culture medium or are partially fused and account for ½ or more of the slant face and ¾ or less of the slant face) and 2+ (positive (2+) if the bacterial colonies dispersedly grow on the slant face of the culture medium and account for ¼ or more of the slant face and ½ or less of the slant face) | growth of bacterial colonies on drug-containing culture medium ([2]; rifampicin 50 μg/ml, Table 6, isoniazid- and rifampicin-resistant clinical strains): 4+ (positive (4+) if the bacterial colonies closely grow on the slant face of the culture medium and account for ¾ or more of the area of the slant face) and 3+ (positive (3+) if the bacterial colonies closely grow on the slant face of the culture medium or are partially fused and account for ½ or more of the slant face and ¾ or less of the slant face) and 2+ (positive (2+) if the bacterial colonies dispersedly grow on the slant face of the culture medium and account for ¼ or more of the slant face and ½ or less of the slant face)

carrimycin
number of strains sensitive to 1 μg/ml of carrimycin ([2]; 1 μg/ml): 54 strains | share of total effective bacteria sensitive to 1 μg/ml of carrimycin ([2]; 1 μg/ml): 31.39% | number of strains with activity superior to that of isoniazid and that of rifampicin ([2]; 20 μg/ml carrimycin vs 1 μg/ml isoniazid and 250 μg/ml rifampicin): 23 strains | number of strains with activity superior to that of isoniazid ([2]; 20 μg/ml carrimycin, isoniazid-resistant clinical strains): 37 strains | number of strains with activity superior to that of rifampicin ([2]; 20 μg/ml carrimycin, rifampicin-resistant clinical strains): 39 strains | total effective rate ([2]; 172 of 240 clinically-separated strains): 71.66% | share of effective strains with activity superior to isoniazid ([2]; of 172 effective strains): 21.5% | share of effective strains with activity superior to isoniazid and rifampicin ([2]; of 172 effective strains): 13.4% | share of effective strains with activity superior to rifampicin ([2]; of 172 effective strains): 22.7% | share of effective strains with sensitivity equivalent to H37Rv ([2]; of 172 effective strains): 53.48% | number of strains with sensitivity equivalent to that of quality control strains H37Rv ([2]; of 172 sensitive strains): 92 strains | number of strains with sensitivity obviously higher than that of quality control strains H37Rv ([2]; of 172 sensitive strains): 80 strains | number of strains sensitive to carrimycin ([2]; of 240 clinically-separated strains, 1 μg/ml or 20 μg/ml): 172 strains

NNC(=O)c1ccncc1 [Isoniazid, isoniazid]
resistance rate of Mycobacterium tuberculosis [1, 3]: 53.67% | growth of bacterial colonies on drug-containing culture medium ([2]; isoniazid 0.2 μg/ml, Table 4, per clinical strain): 4+ (positive (4+) if the bacterial colonies closely grow on the slant face of the culture medium and account for ¾ or more of the area of the slant face) and 3+ (positive (3+) if the bacterial colonies closely grow on the slant face of the culture medium or are partially fused and account for ½ or more of the slant face and ¾ or less of the slant face)

[H]/N=C(/N)N[C@H]1[C@H](O)[C@@H](O)[C@H](O[C@@H]2O[C@@H](C)[C@](O)(C=O)[C@H]2O[C@@H]2O[C@@H](CO)[C@H](O)[C@@H](O)[C@@H]2NC)[C@@H](N/C(N)=N\[H])[C@@H]1O [streptomycin]
resistance rate of Mycobacterium tuberculosis [1, 3]: 45.95%
